From patent US20250051327A1, “MALT-1 MODULATORS” (EXSCIENTIA AI LIMITED, priority 2020, published 2025)

How the values were obtained:
[1] = system: IL-2 secretion by human effector memory T cells (TEM); test: Effector memory T cells IL-2 release assay; format: cell-based; details: T-cell; human CD4+ effector memory T cells, CD3/CD28 bead stimulation, 24 h; read-out: CD4TC IL2 IC50
Summary of the method: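 Human CD4+ effector memory T cells from healthy-donor buffy coats were stimulated with anti-CD3/CD28 Dynabeads and exposed to 10 semi-log compound doses (0.1% DMSO) for 24 h at 37 °C. Supernatant IL-2 was measured by HTRF, and IC50 came from a 4-parameter logistic fit to maximal IL-2. Viability was checked by flow cytometry.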

[2] = molecular target: Recombinant human MALT-1 (amino acids 340-824) (Homo sapiens (Human), UniProt Q9UDY8); test: MALT-1 inhibition assay (fluorogenic substrate Ac-LRSR-Rh110-DP); format: biochemical; details: recombinant human MALT-1, substrate Ac-LRSR-Rh110-DP
Summary of the method: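 Reactions were started with fluorogenic substrate Ac-LRSR-Rh110-DP (10 μM final) against 3 nM enzyme and kept dark at 25° C for 60 minutes. IC50 values came from 4-parameter logistic fits of percent inhibition calculated from relative fluorescence units.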

Sequence of Recombinant human MALT-1 (amino acids 340-824) (Q9UDY8 340-824): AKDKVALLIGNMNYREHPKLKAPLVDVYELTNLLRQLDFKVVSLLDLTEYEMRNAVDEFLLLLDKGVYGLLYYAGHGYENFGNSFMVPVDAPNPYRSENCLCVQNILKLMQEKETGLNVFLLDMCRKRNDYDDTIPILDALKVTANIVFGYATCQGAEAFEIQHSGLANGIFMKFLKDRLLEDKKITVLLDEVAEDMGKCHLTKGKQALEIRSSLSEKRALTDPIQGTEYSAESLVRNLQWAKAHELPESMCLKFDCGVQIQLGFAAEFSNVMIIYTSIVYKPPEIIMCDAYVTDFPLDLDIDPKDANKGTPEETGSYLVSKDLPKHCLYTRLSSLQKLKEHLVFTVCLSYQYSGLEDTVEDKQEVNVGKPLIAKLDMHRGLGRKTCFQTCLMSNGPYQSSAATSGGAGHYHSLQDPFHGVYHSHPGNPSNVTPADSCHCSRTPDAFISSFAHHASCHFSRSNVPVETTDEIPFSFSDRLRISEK

| SMILES | IC50 [1] [nM] | IC50 [2] [nM] |
| --- | --- | --- |
| CN(C(=O)C1CC[S+]([O-])CC1)[C@@H](c1ccc(N2CCCc3c2cnc2cc(Cl)nn32)cc1)C(F)(F)F (some centres unmarked) [CPD0019481] | 86 | 76 |
| COc1ccc2ncc(Nc3ccc([C@H](N(C)C(=O)C4CCS(=O)(=O)CC4)C(F)(F)F)cc3)cc2n1 [CPD0018619, N-methyl-1,1-dioxo-N-[(1S)-2,2,2-trifluoro-1-[4-[(6-methoxy-1,5-naphthyridin-3-yl)amino]phenyl]ethyl]thiane-4-carboxamide] | 190 | 361 |
| CN(C(=O)C[C@H]1CCS(=O)(=O)C1)[C@@H](c1ccc(N2CCCc3c2cnc2cc(Cl)nn32)cc1)C(F)(F)F (relative stereo) [CPD0072799, N-[(1S)-1-(4-{4-chloro-2,3,7,10-tetraazatricyclo[7.4.0.0^2,6]trideca-1(9),3,5,7-tetraen-10-yl}phenyl)-2,2,2-trifluoroethyl]-2-[(3rel-S)-1,1-dioxo-1λ^6-thiolan-3-yl]-N-methylacetamide] | 178 | 88 |
| CN(C(=O)C1CCSCC1)[C@@H](c1ccc(N2CCCc3c2cnc2cc(Cl)nn32)cc1)C(F)(F)F [CPD0019482, N-[(1S)-1-(4-{4-chloro-2,3,7,10-tetraazatricyclo[7.4.0.0^2,6]trideca-1(9),3,5,7-tetraen-10-yl}phenyl)-2,2,2-trifluoroethyl]-N-methylthiane-4-carboxamide] | 146 | 91 |
| CN(C(=O)CN1CCCS1(=O)=O)[C@@H](c1ccc(N2CCCc3c2cnc2cc(Cl)nn32)cc1)C(F)(F)F [CPD0073085, N-[(1S)-1-(4-{4-chloro-2,3,7,10-tetraazatricyclo[7.4.0.0^2,6]trideca-1(9),3,5,7-tetraen-10-yl}phenyl)-2,2,2-trifluoroethyl]-2-(1,1-dioxo-1λ^6,2-thiazolidin-2-yl)-N-methylacetamide] | 286 | 154 |

Continued, values first:

| IC50 [1] [nM] | IC50 [2] [nM] | SMILES |
| --- | --- | --- |
| 57 | 46 | CN(C(=O)[C@H]1CNC(=O)O1)[C@@H](c1ccc(N2CCCc3c2cnc2cc(Cl)nn32)cc1)C(F)(F)F (single isomer, unassigned) [CPD0075576] |
| 352 | 80 | CN(C(=O)C1CN(C(=O)[C@H]2CCO2)C1)[C@@H](c1ccc(N2CCCc3c2cnc2cc(Cl)nn32)cc1)C(F)(F)F (relative stereo) [CPD0073562, N-[(1S)-1-(4-{4-chloro-2,3,7,10-tetraazatricyclo[7.4.0.0^2,6]trideca-1(9),3,5,7-tetraen-10-yl}phenyl)-2,2,2-trifluoroethyl]-N-methyl-1-[(2rel-R)-oxetane-2-carbonyl]azetidine-3-carboxamide] |
| 47 | 52 | COc1ccc2ncc(Nc3ccc([C@H](N(C)C(=O)[C@@H]4CCN(C(=O)CO)C4)C(F)(F)F)cc3)c([C@H](C)OC)c2n1 (relative stereo) [CPD0075883, (3 rel R)-1-(2-hydroxyacetyl)-N-methyl-N-[(1S)-2,2,2-trifluoro-1-[4-[[6-methoxy-4-[(1 rel S-1-methoxyethyl]-1,5-naphthyridin-3-yl]amino]phenyl]ethyl]pyrrolidine-3-carboxamide] |
| 94 | 60 | CN1C(=O)CC[C@@H]1C(=O)N(C)[C@@H](c1ccc(N2CCCc3c2cnc2cc(Cl)nn32)cc1)C(F)(F)F [CPD0073920, (2R)-N-[(1S)-1-(4-{4-chloro-2,3,7,10-tetraazatricyclo[7.4.0.0^2,6]trideca-1(9),3,5,7-tetraen-10-yl}phenyl)-2,2,2-trifluoroethyl]-N,1-dimethyl-5-oxopyrrolidine-2-carboxamide] |
| 116 | 85 | COCC(=O)N1CC[C@@H](C(=O)N(C)[C@@H](c2ccc(N3CCCc4c3cnc3cc(Cl)nn43)cc2)C(F)(F)F)C1 (relative stereo) [CPD0075875, (3rel-S)-N-[(1S)-1-[4-(4-chloro-2,3,7,10-tetrazatricyclo[7.4.0.0^2,6]trideca-1(9),3,5,7-tetraen-10-yl)phenyl]-2,2,2-trifluoro-ethyl]-1-(2-methoxyacetyl)-N-methyl-pyrrolidine-3-carboxamide] |
